For 13 compounds, IC50 results are on record in US20230365571A1, “COMPOUNDS AND COMPOSITIONS AS Sppl2a INHIBITORS” (Novartis AG, priority 2020, published 2023).

pIC50: −log10 of the molar value.

For experiment [1], the target named is T1, human SPPL2a (Homo sapiens, UniProt Q8TCT8).
T1 sequence (Q8TCT8 26-520): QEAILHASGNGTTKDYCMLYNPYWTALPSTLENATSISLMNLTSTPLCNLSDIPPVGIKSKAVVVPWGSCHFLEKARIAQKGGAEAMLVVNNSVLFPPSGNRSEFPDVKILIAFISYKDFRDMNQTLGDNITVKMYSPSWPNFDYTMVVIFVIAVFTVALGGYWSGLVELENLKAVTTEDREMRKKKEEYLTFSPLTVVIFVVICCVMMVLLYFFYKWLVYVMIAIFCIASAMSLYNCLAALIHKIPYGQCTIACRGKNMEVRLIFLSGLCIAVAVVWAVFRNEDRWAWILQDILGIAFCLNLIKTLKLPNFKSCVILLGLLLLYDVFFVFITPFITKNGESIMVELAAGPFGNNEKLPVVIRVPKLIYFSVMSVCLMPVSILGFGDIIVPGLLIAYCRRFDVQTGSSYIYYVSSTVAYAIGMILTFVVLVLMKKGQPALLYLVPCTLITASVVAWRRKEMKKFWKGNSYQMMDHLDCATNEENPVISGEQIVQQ
Description: Sppl2a TL (translocation) imaging assay in U-2 OS cells. More on the design: expressed in transfected cells. In kind it is cell-based. To be noted: U-2 OS cells expressing human SPPL2a and EGFP-TNFα(aa1-76) NTF substrate; 24 h. The method, then:
SPPL2a, TL in U-2 OS Cells. Stable U-2 OS cell lines expressing human SPPL2a constitutively and a EGFP-labeled TNFα(aa1-76) NTF substrate under a doxycycline-regulated promoter were used for the imaging assays. Cells were seeded at 3000 cells/30 μL/384-well in DMEM/GlutaMax™-I (Invitrogen) supplemented with tetracycline-free 10% FBS (Amimed) and incubated at 37° C., 5% CO2 for 3-4 h. Subsequently, 3.3 μL of inhibitors, prediluted in doxycycline-containing medium for 11-point concentration-response curves, were added to each well using a CyBi well liquid handling device (Cybio AG, Jena, Germany) to result in final inhibitor concentrations ranging from 100 μM to 1 nM (final DMSO concentration 0.9% (v/v)) and 5 μg/mL doxycycline). The cells were incubated with inhibitor at 37° C., 5% CO2 for 24 h. Thereafter cell were fixed in 4% PFA/PBS and in parallel, nuclei were stained with Hoechst (Invitrogen) 1:5000 in PBS for 30 min. The plates were imaged using a Cellomics ArrayScan VTI HCS reader with 10×/0.3NA objective (Thermo Fisher Scientific, USA). Six images per well were acquired. Images for the EGFP signal (Ex395, Em509) and the Hoechst nuclear dye (Ex350, Em425) were acquired simultaneously with image analysis using the “Nuclear Translocation” assay algorithm of the Cellomics ArrayScan software. Nuclei were detected based on the Hoechst staining, the nuclear mask was transferred to the EGFP channel, and a 4 pixel wide cytoplasm ring region was defined around the nucleus. The intensity of the EGFP signal was measured both in the nuclear and in the cytoplasm ring region of each individual cell (in general 800-1000 individual cells were analyzed per well), and the difference of the average nuclear versus average cytoplasmic intensity of the EGFP signal was calculated (“CircRingAvgIntenDiffCh2”=“CircAvgIntenCh2”−“RingAvgIntenCh2”). Additionally the number of cells were acquired (feature termed “ValidCellCount”) and used to calculate cell toxicity (CC50). Percent inhibition was calculated relative to the positive (0.5 μM LY-411,575=100% inhibition) and negative (DMSO=0% inhibition) controls. The IC50 value was calculated from the plot of percentage of inhibition vs inhibitor concentration using nonlinear regression analysis software, e.g., Origin (OriginLab Corp.).

Experiment [2] concerns the target T1, human SPPL2a. The experiment is described as follows: Sppl2a RGA (reporter gene assay) in HEK293 cells. In kind it is cell-based. On the set-up: expressed in transfected cells; host or cells: HEK293 (transient). The settings on record: NT-TNF-VP16-Gal4 substrate, Gal4-luciferase reporter, 24 h. The text has this: Sppl2a RGA (Reporter Gene Assay):
Sppl2a is an intramembrane aspartyl protease with similarities to presenilin, the active subunit of the γ-secretase complex. The assay is based on the coupling of the proteolytic degradation of a membrane bound synthetic substrate (VP16-Gal4 fusion protein with the N-terminal domain of TNF alpha), which migrates to the nucleus upon cleavage, with the Gal4 driven expression of luciferase. Inhibition of Sppl2a results in a reduction of nuclear VP16-Gal4 activator and therefore in a reduction of the production of luciferase. The luciferase dependent-luminescence is plotted against the concentrations of compound to generate a dose response curve, which allows the calculation of the IC50 value.
DNA vectors encoding human Sppl2a, NT-TNF-VP16-Gal4 and a Gal4-luciferase reporter were transiently transfected in HEK293 cells. In a typical experiment 5 μg plasmid for SPPL2a, 10 μg plasmid encoding the reporter Gal4-luciferase and 20 μg plasmid encoding the substrate NT-TF-VP16-Gal4 were mixed together. The DNA mixture was combined with 107 μl FuGENE® (Promega), 735 μl Opti-MEM® (Life Technologies) and incubated for 5 minutes at RT. To this mixture 20 mL of concentrated HEK293 cells were added and thoroughly mixed. The cell suspension was distributed to a white solid 384 well plate. Within 5 hours, 50 nl of compound in DMSO was stamped into the wells via pintool. The plate was incubated for 24 h at 37° C., 5% CO2 in a humidified incubator, before the addition of 25 μl Bright Glo. After incubation at RT for 5 min, the plate was transferred to a luminometer and the luminescence was measured. The IC50 was determined by plotting compound concentration vs. normalized luminescence values.
On the technique in general: In a reporter assay the amount or activity of a reporter protein is the signal.

In general, pIC50 refers to the IC50 on a negative log10 scale, so that one unit is a factor of ten. A high value points to a low IC50.

Consider `O=C(NC[C@H](C(=O)N[C@@H]1C(=O)N2CCCN2C(=O)c2ccccc21)C(F)(F)F)c1sc(-c2ccc(C(F)(F)F)nc2)nc1Cl` [Example 40, 4-Chloro-N-((R)-2-(((S)-5,11-dioxo-2,3,10,11-tetrahydro-1H,5H-benzo[d]pyrazolo [1,2-a][1,2]diazepin-10-yl)carbamoyl)-3,3,3-trifluoropropyl)-2-(6-(trifluoromethyl)pyridin-3-yl)thiazole-5-carboxamide], for which the pIC50 on human SPPL2a [1] was 7.24; on human SPPL2a [2], 7.38.
For the compound `Cc1cc(-c2nc(C)c(C(=O)NC[C@H](C(=O)N[C@@H]3C(=O)N4CCCN4C(=O)c4ccccc43)C3CC3)s2)on1` [Example 41, N-((R)-2-Cyclopropyl-3-(((S)-5,11-dioxo-2,3,10,11-tetrahydro-1H,5H-benzo[d]pyrazolo [1,2-a][1,2]diazepin-10-yl)amino)-3-oxopropyl)-4-methyl-2-(3-methylisoxazol-5-yl)thiazole-5-carboxamide], the pIC50 against human SPPL2a [1] is 7.23; on human SPPL2a [2], 7.43.
As to `Cc1nc(C2=CCOCC2)sc1C(=O)NC[C@H](C(=O)N[C@@H]1C(=O)N2CCCN2Cc2ccccc21)C(F)(F)F` [Example 44, 2-(3,6-Dihydro-2H-pyran-4-yl)-4-methyl-N-((R)-3,3,3-trifluoro-2-(((S)-11-oxo-2,3,10,11-tetrahydro-1H,5H-benzo[d]pyrazolo [1,2-a][1,2]diazepin-10-yl)carbamoyl)pro-pyl)thiazole-5-carboxamide], the pIC50 was 7.17 at human SPPL2a [1] and 7.57 against human SPPL2a [2].
On to `Cc1noc(C)c1C(=O)NC[C@H](C(=O)N[C@@H]1C(=O)N2CCCN2C(=O)c2ccccc21)C(F)(F)F` [Example 48, N-((R)-2-(((S)-5,11-Dioxo-2,3,10,11-tetrahydro-1H,5H-benzo[d]pyrazolo [1,2-a][1,2]diazepin-10-yl)carbamoyl)-3,3,3-trifluoropropyl)-3,5-dimethylisoxazole-4-carboxamide], for which the pIC50 is 7.07 at human SPPL2a [1] and 7.66 against human SPPL2a [2].
Taken in the same sequence, the figures for `CC[C@H](CNC(=O)c1scnc1Cl)C(=O)N[C@@H]1C(=O)N2CC3(CC3)CN2C(=O)c2ccccc21` [Example 49, 4-Chloro-N-((R)-2-(((S)-5,11-dioxo-10,11-dihydro-1H,3H,5H-spiro [benzo[d]pyr-azolo[1,2-a][1,2]diazepine-2,1″-cyclopropan]-10-yl)carbamoyl)butyl) thiazole-5-carboxamide] were 7.04 and 7.05.
Taken in the same sequence, the figures for `CC[C@H](CNC(=O)c1oncc1C)C(=O)N[C@@H]1C(=O)N2CCCN2Cc2ccccc21` [Example 51, 4-Methyl-N-((R)-2-(((S)-11-oxo-2,3,10,11-tetrahydro-1H,5H-benzo[d]pyrazolo [1,2-a][1,2]diazepin-10-yl)carbamoyl)butyl) isoxazole-5-carboxamide] were 7.00 and 7.28.
The like results for `O=C(NC[C@H](C(=O)N[C@@H]1C(=O)N2CCCN2Cc2c(F)cccc21)C1CC1)c1sc(C2CC2)nc1Cl` [Example 54, 4-Chloro-2-cyclopropyl-N-((R)-2-cyclopropyl-3-(((S)-6-fluoro-11-oxo-2,3,10,11-tetrahydro-1H,5H-benzo[d]pyrazolo [1,2-a][1,2]diazepin-10-yl)amino)-3-oxopropyl)thiazole-5-carboxamide] were, in that order, 6.89 and 7.32.
For `Cc1nc(Cl)c(C(=O)NC[C@H](C(=O)N[C@@H]2C(=O)N3CCCN3Cc3c(F)cccc32)C2CC2)s1` [Example 55, 4-Chloro-N-((R)-2-cyclopropyl-3-(((S)-6-fluoro-11-oxo-2,3,10,11-tetrahydro-1H,5H-benzo[d]pyrazolo [1,2-a][1,2]diazepin-10-yl)amino)-3-oxopropyl)-2-methylthiazole-5-carboxamide], the pIC50 at human SPPL2a [1] is 6.79; against human SPPL2a [2], 6.82.
Taken in the same sequence, the figures for `CC[C@H](CNC(=O)c1ccnn1C(F)F)C(=O)N[C@@H]1C(=O)N2CC3(CC3)CN2C(=O)c2ccccc21` [Example 56, 1-(Difluoromethyl)-N-((R)-2-(((S)-5,11-dioxo-10,11-dihydro-1H,3H,5H-spiro[benzo[d]pyr-azolo[1,2-a][1,2]diazepine-2,1′-cyclopropan]-10-yl)carbamoyl)butyl)-1H-pyrazole-5-carboxamide] were 6.72 and 7.00.
As for `CC[C@H](CNC(=O)c1scnc1C(F)(F)F)C(=O)N[C@@H]1C(=O)N2CC3(CC3)CN2C(=O)c2ccccc21` [Example 57, N-((R)-2-(((S)-5,11-Dioxo-10,11-dihydro-1H,3H,5H-spiro[benzo[d]pyr-azolo[1,2-a][1,2]diazepine-2,1′-cyclopropan]-10-yl)carbamoyl)butyl)-4-(trifluoromethyl) thiazole-5-carboxamide], the pIC50 against human SPPL2a [1] was 6.48; on human SPPL2a [2], 6.83.
Consider `Cc1nc(Cc2ccccc2)sc1C(=O)NC[C@@H](C)C(=O)N[C@@H]1C(=O)N2CCCN2Cc2ccccc21` [Example 58, 2-Benzyl-4-methyl-N-((R)-2-methyl-3-oxo-3-(((S)-11-oxo-2,3,10,11-tetrahydro-1H,5H-benzo[d]pyrazolo [1,2-a][1,2]diazepin-10-yl)amino)propyl) thiazole-5-carboxamide], for which the pIC50 was 6.43 on human SPPL2a [1] and 6.71 on human SPPL2a [2].
With `CC[C@H](CNC(=O)c1sc(C2CC2)nc1C(F)(F)F)C(=O)N[C@@H]1C(=O)N2CC3(CC3)CN2C(=O)c2ccccc21` [Example 59, 2-Cyclopropyl-N-((R)-2-(((S)-5,11-dioxo-10,11-dihydro-1H,3H,5H-spiro[benzo[d]pyr-azolo[1,2-a][1,2]diazepine-2,1′-cyclopropan]-10-yl)carbamoyl)butyl)-4-(trifluoromethyl) thiazole-5-carboxamide], the pIC50 against human SPPL2a [1] was 6.26; on human SPPL2a [2], 6.18.
The like results for `Cc1ccn(C)c1C(=O)NC[C@@H](C)C(=O)N[C@@H]1C(=O)N2CCCN2Cc2ccccc21` [Example 60, 1,3-dimethyl-N-((R)-2-methyl-3-oxo-3-(((S)-11-oxo-2,3,10,11-tetrahydro-1H,5H-benzo[d]pyrazolo [1,2-a][1,2]diazepin-10-yl)amino)propyl)-1H-pyrrole-2-carboxamide] were, in that order, 6.24 and 6.56.
